Test results reported in ChEMBL document CHEMBL4130445, “TNF-α and IL-6 inhibitors: Conjugates of N-substituted indole and aminophenylmorpholin-3-one as anti-inflammatory agents” (Eur J Med Chem, 2017).
Calls of active or inactive are those of the source. The calls are words filed in the database; no cut-off is given here.

How the values were obtained:
Mus musculus [1] = assay: Toxicity in Swiss albino mouse model of acetic acid induced writhing up to 2000 mg/kg, ip dosed 30 mins before acetic acid injection; assay type: organism-based; conditions: in vivo, 0.5 h
[2] = Cytotoxicity in mouse BV2 cells assessed as cell viability at 60 uM incubated for 48 hrs by MTT assay (reference value: 100%); assay type: cell-based, BV-2; conditions: read-out: Activity
[3] = Cytotoxicity in mouse BV2 cells assessed as cell viability at 15 uM incubated for 48 hrs by MTT assay (reference value: 100%); assay type: cell-based, BV-2; conditions: read-out: Activity
BV-2 [4] = assay: Inhibition of LPS-induced nitric oxide production in mouse BV2 cells assessed as nitric oxide level at 20 uM pre-incubated before LPS stimulation by Griess reagent based assay (reference value: 121.09%); assay type: functional; design: scale not given: the % may be the effect or the level left
BV-2 [5] = assay: Inhibition of LPS-induced TNFalpha production in mouse BV2 cells at 10 uM pre-incubated before LPS stimulation by ELISA; assay type: functional
BV-2 [6] = assay: Inhibition of LPS-induced MMP9 production production in mouse BV2 cells pre-incubated before LPS stimulation by gelatin zymography; assay type: functional, cell-based
BV-2 [7] = assay: Inhibition of LPS-induced IL6 production in mouse BV2 cells assessed as IL6 level at 10 uM pre-incubated before LPS stimulation by ELISA (reference value: 146.75%); assay type: functional; design: scale not given: the % may be the effect or the level left
BV-2 [8] = assay: Suppression of LPS-induced morphological changes in mouse BV2 cells at 5 uM pre-incubated before LPS stimulation by phase contrast microscopy; assay type: functional, cell-based
[9] = Cytotoxicity in mouse BV2 cells assessed as cell viability at 0.5 uM incubated for 48 hrs by MTT assay (reference value: 100%); assay type: cell-based, BV-2; conditions: read-out: Activity
[10] = molecular target: Transcription factor Jun (Mus musculus) (UniProt P05627); assay: Inhibition of LPS-induced AP1 nuclear translocation in mouse BV2 cells pre-incubated before LPS stimulation by immunostaining based confocal laser microscopy; assay type: cell-based
BV-2 [11] = assay: Suppression of LPS-induced morphological changes in mouse BV2 cells at 10 uM pre-incubated before LPS stimulation by phase contrast microscopy; assay type: functional, cell-based
[12] = molecular target: T1, Prostaglandin G/H synthase 2 (Homo sapiens) (UniProt P35354); assay: Inhibition of COX2 (unknown origin) by immunoassay
T1 sequence (whole entry): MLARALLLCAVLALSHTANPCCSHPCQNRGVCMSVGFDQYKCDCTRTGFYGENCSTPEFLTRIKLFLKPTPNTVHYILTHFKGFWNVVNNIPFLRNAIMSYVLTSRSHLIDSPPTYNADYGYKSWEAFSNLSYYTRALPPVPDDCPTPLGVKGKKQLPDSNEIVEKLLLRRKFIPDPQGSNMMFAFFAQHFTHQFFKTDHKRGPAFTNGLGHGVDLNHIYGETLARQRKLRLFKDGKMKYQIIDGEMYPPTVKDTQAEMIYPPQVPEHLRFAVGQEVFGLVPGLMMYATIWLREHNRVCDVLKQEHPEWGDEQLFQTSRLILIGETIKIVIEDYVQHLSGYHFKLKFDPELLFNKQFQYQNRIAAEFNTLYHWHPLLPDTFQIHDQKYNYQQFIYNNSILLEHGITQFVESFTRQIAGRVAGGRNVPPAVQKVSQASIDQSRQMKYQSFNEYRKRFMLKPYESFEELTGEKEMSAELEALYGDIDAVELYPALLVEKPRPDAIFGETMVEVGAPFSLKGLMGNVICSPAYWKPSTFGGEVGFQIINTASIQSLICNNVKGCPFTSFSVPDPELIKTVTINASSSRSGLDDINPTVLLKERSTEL

BV-2 [13] = assay: Inhibition of LPS-induced TNFalpha production in mouse BV2 cells assessed as TNFalpha level at 10 uM pre-incubated before LPS stimulation by ELISA (reference value: 142.71%); assay type: functional; design: scale not given: the % may be the effect or the level left
[14] = Cytotoxicity in mouse BV2 cells assessed as cell viability at 5 uM incubated for 48 hrs by MTT assay (reference value: 100%); assay type: cell-based, BV-2; conditions: read-out: Activity
BV-2 [15] = assay: Inhibition of LPS-induced TNFalpha production in mouse BV2 cells at 20 uM pre-incubated before LPS stimulation by ELISA; assay type: functional
[16] = Cytotoxicity in mouse BV2 cells assessed as cell viability at 20 uM incubated for 48 hrs by MTT assay (reference value: 100%); assay type: cell-based, BV-2; conditions: read-out: Activity
Mus musculus [17] = assay: Analgesic activity in Swiss albino mouse model of acetic acid induced writhing assessed as inhibition of pain response at 10 mg/kg, ip dosed 30 mins before acetic acid injection; assay type: functional
[18] = Cytotoxicity in mouse BV2 cells assessed as cell viability at 80 uM incubated for 48 hrs by MTT assay (reference value: 100%); assay type: cell-based, BV-2; conditions: read-out: Activity
[19] = Cytotoxicity in mouse BV2 cells assessed as cell viability at 10 uM incubated for 48 hrs by MTT assay (reference value: 100%); assay type: cell-based, BV-2; conditions: read-out: Activity
BV-2 [20] = assay: Cytotoxicity in mouse BV2 cells assessed as reduction in cell viability incubated for 48 hrs by MTT assay; assay type: cell-based; conditions: BV-2, 48 h
[21] = Cytotoxicity in mouse BV2 cells assessed as cell viability at 1 uM incubated for 48 hrs by MTT assay (reference value: 100%); assay type: cell-based, BV-2; conditions: read-out: Activity
[22] = Cytotoxicity in mouse BV2 cells assessed as cell viability at 100 uM incubated for 48 hrs by MTT assay (reference value: 100%); assay type: cell-based, BV-2; conditions: read-out: Activity
Mus musculus [23] = species on record: Mus musculus; assay: Inhibition of LPS-induced NFkappaB nuclear translocation in mouse BV2 cells pre-incubated before LPS stimulation by immunostaining based confocal laser microscopy; assay type: cell-based
BV-2 [24] = assay: Inhibition of LPS-induced MMP2 production production in mouse BV2 cells assessed as MMP2 protein level pre-incubated before LPS stimulation by gelatin zymography (reference value: 105.071%); assay type: functional; design: scale not given: the % may be the effect or the level left
BV-2 [25] = assay: Inhibition of LPS-induced MMP2 production production in mouse BV2 cells pre-incubated before LPS stimulation by gelatin zymography; assay type: functional, cell-based
BV-2 [26] = assay: Inhibition of LPS-induced TNFalpha production in mouse BV2 cells assessed as TNFalpha level at 20 uM pre-incubated before LPS stimulation by ELISA (reference value: 142.71%); assay type: functional; design: scale not given: the % may be the effect or the level left
BV-2 [27] = assay: Inhibition of LPS-induced IL6 production in mouse BV2 cells assessed as IL6 level at 20 uM pre-incubated before LPS stimulation by ELISA (reference value: 146.75%); assay type: functional; design: scale not given: the % may be the effect or the level left
BV-2 [28] = assay: Inhibition of LPS-induced nitric oxide production in mouse BV2 cells assessed as nitric oxide level at 10 uM pre-incubated before LPS stimulation by Griess reagent based assay (reference value: 121.09%); assay type: functional; design: scale not given: the % may be the effect or the level left
BV-2 [29] = assay: Inhibition of LPS-induced IL6 production in mouse BV2 cells at 20 uM pre-incubated before LPS stimulation by ELISA; assay type: functional
BV-2 [30] = assay: Inhibition of LPS-induced MMP9 production production in mouse BV2 cells assessed as MMP9 protein level pre-incubated before LPS stimulation by gelatin zymography (reference value: 105.113%); assay type: functional; design: scale not given: the % may be the effect or the level left
BV-2 [31] = assay: Inhibition of LPS-induced IL6 production in mouse BV2 cells at 10 uM pre-incubated before LPS stimulation by ELISA; assay type: functional
[32] = Cytotoxicity in mouse BV2 cells assessed as cell viability at 40 uM incubated for 48 hrs by MTT assay (reference value: 100%); assay type: cell-based, BV-2; conditions: read-out: Activity

Chain of Transcription factor Jun (Mus musculus) (P05627 whole entry): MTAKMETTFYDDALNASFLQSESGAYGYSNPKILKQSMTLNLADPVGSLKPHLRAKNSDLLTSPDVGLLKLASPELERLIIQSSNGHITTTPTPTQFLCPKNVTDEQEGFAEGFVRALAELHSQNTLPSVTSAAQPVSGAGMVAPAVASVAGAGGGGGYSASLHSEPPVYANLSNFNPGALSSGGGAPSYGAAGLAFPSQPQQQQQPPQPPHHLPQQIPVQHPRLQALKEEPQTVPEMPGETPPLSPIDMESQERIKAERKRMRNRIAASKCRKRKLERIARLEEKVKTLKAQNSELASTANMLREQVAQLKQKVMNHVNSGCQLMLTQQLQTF

O=C1COCCN1c1ccc(/N=C\c2cn(C(=O)c3ccc(Cl)cc3)c3ccccc23)cc1
Activity (Mus musculus [1]): Non-Toxic | viability at 48 h, 60 µM [2]: 84.2% | viability at 48 h, 15 µM [3]: 105% | Activity (BV-2 [4]): 100.905% | inhibition at 10 µM (BV-2 [5]): 60.5% | inhibition (BV-2 [6]): Active | Activity (BV-2 [7]): 76.51% | Activity (BV-2 [8]): Active | viability at 48 h, 0.5 µM [9]: 95.2% | inhibition [10]: Active | Activity (BV-2 [11]): Active | inhibition [12]: inactive | Activity (BV-2 [13]): 56.34% | viability at 48 h, 5 µM [14]: 93.6% | inhibition at 20 µM (BV-2 [15]): 70.9% | viability at 48 h, 20 µM [16]: 99% | inhibition in vivo at 10 mg/kg (Mus musculus [17]): 74.9% | viability at 48 h, 80 µM [18]: 90.3% | viability at 48 h, 10 µM [19]: 90.1% | IC50 (BV-2 [20]): > 100 µM | viability at 48 h, 1 µM [21]: 97.6% | viability at 48 h, 100 µM [22]: 80.5% | inhibition (Mus musculus [23]): Active | Activity (BV-2 [24]): 84.884% | inhibition (BV-2 [25]): Active | Activity (BV-2 [26]): 41.58% | Activity (BV-2 [27]): 69.12% | Activity (BV-2 [28]): 100.905% | inhibition at 20 µM (BV-2 [29]): 52.9% | Activity (BV-2 [30]): 89.261% | inhibition at 10 µM (BV-2 [31]): 47.9% | viability at 48 h, 40 µM [32]: 96.6%
